One may read the IC50 as the concentration needed to halve the response being measured. What is called EC50 is the concentration at which the effect is half-maximal.

This is an account of results in publication PMC8955307, “Nucleobase-Derived Nitrones: Synthesis and Antioxidant and Neuroprotective Activities in an In Vitro Model of Ischemia–Reperfusion” (International Journal of Molecular Sciences, 2022).

Molecules are shown by their SMILES. “And” between values parts separate entries of the source, which are not always exact repeats. Identical values can stand only once. Like-named read-outs stand apart in the source and are kept apart here.

Experiment [1] addresses T1, Soybean Lipoxygenase (SLOX) (Glycine max, UniProt P08170).
T1 sequence (P08170 1-839): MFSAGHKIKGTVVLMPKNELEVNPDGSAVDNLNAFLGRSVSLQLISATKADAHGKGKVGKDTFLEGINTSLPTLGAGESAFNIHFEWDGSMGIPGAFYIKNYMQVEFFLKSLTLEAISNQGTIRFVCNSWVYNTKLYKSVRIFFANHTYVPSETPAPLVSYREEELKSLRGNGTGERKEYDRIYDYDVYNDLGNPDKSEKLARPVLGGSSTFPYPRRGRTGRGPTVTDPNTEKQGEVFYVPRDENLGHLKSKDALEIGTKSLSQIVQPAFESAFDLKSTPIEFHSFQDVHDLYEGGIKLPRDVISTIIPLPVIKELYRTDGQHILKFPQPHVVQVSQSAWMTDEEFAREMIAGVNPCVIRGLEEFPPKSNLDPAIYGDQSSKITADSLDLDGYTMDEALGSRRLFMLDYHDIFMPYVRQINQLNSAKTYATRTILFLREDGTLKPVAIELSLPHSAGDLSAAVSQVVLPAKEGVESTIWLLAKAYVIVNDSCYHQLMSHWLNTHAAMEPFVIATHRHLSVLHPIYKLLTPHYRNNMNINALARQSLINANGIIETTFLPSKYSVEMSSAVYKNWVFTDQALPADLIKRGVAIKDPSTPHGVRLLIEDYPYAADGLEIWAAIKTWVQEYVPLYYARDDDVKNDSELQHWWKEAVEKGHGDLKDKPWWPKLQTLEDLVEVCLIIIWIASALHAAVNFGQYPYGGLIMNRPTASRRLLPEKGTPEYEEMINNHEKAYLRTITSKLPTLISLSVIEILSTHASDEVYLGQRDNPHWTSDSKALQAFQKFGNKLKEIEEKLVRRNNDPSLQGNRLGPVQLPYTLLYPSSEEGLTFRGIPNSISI
Kind of experiment: In vitro inhibition of soybean lipoxygenase (UV absorbance-based enzyme assay). Type of experiment: biochemical. The settings on record: for IC50: soybean LOX, sodium linoleate substrate, pH 9. Here is the method: The experimental conditions followed our previously reported protocol. Sodium linoleate was used as a substrate (0.1 mM) with 0.2 mL of the saline solution of SLOX (1/9 × 10^−4 w/v) in the Tris buffer pH 9.

The nature of experiment [2]: ABTS radical cation decolorization assay. The settings on record: tested at 100 µM. Here is the method: Approximately 10 µL of the tested compounds in DMSO (100 µM final concentration) were mixed with 200 µL of ABTS∙^+ (100 mM) and 790 µL absolute ethanol. The absorbance value was recorded 1 min after mixing at 734 nm and compared to Trolox.
Experiment [3] deals with SH-SY5Y human neuroblastoma cells. The experiment is described as follows: Anti-necrotic effect: LDH release after OGD (4 h) and 24 h OGR (IR). Type of experiment: cell-based. To be noted: OGD 4 h + 24 h OGR (IR); for IC50: compounds 0.1 μM to 1 mM, read-out: LDH Release Inhibition IC50 ±SEM; for Emax: read-out: Maximal Inhibition Mean±SEM (LDH release). Here is the method:
(§1) To induce experimental ischemia, and the sub-consequent cellular damage, the neuroblastoma cultures underwent OGD for 3–4 h, maintained in a glucose-free Dulbecco’s medium inside an anaerobic chamber in the presence of a gas mixture of 95% N2/5% CO2 and humidified at 37 °C at a constant pressure of 0.15 bar. After the OGD period (4 h), medium was substituted by oxygenated 10% FCS-containing medium, and cells were incubated in conditions of normoxia for 24 h to recovery (R24h). The compounds used in the neuroprotection studies: nitrones 9a–i, α-phenyl-N-tert-butyl nitrone (PBN) and N-acetyl-L-cysteine (NAC) (0.01 μM−1000 µM), were added at the beginning of R24h as described. Concurrently, controls in the absence of the OGD procedure were performed by maintaining these cells with Dulbecco’s medium including glucose for 3–4 h in an incubator in conditions of normoxia during the OGD period; thereafter, the medium was changed, and the cells (in the presence or absence of the different study compounds) were returned to the incubator for 24 h of recovery, as described. In addition, experiments including the same amounts of vehicle (final concentration < 1% dimethyl sulfoxide) were performed, serving as controls. The effects of nitrones 9a–g were analyzed three-five times independently using different culture batches, and each experiment was carried out in triplicate.
Anti-necrotic cell activity was evaluated by culturing SHSY5Y cells in 48-well dishes, in a density of 2 × 10^5 cells/well and treating them as controls or under the OGD-R24h procedure, adding the testing compounds at 0.01–1000 µM (see point 4.2.2.). Media of every well were collected in Eppendorf tubes properly labelled and stored at −20 °C until measurement (samples would be needed to measure extracellular NADH). Afterwards, each well was recharged with a 0.1 M Phosphate Buffer with 0.5% Triton X-100, pH 7.5, in order to scratch the cells from the bottom of the well. After a 13.000 rpm centrifugation, the soluble fractions are collected and labelled (samples would be essential to measure intracellular NADH). Finally, LDH activity was quantified as the degree of absorbance declined at 340, indicating the oxidation of NADH to NAD+ as described. Results are expressed as the LDH activity of the extracellular medium referred to the total LDH activity after cell lysis.
(LDH in the medium is a marker of cell lysis.)

Experiment [4] shares this test system. Kind of experiment: Neuroprotection: cell viability (XTT metabolic activity) after OGD (4 h) followed by OGR (24 h) (IR). Type of experiment: cell-based. The settings on record: OGD 4 h + OGR 24 h (IR); for Emax: 24 h, read-out: Maximal Activity mean±SEM (neuroprotection); for EC50: compounds 0.01 μM to 1 mM, read-out: Neuroprotection EC50 ± SEM. Here is the method:
Cultures of human neuroblastoma cells from line SH-SY5Y were performed in flasks containing Dulbecco’s: Ham’s F12, 1:1 [v/v] composed of 0.5 mM sodium pyruvate, 2.5 mM GlutaMAX™; GIBCO, Life Technologies, Madrid (Spain), 3.15 mg/mL glucose, 1% Antibiotic-Antimycotic (100 ui/mL penicillin, […] streptomycin, and 0.25 mg amphotericin B), 1% Gentamicin 15 mg/mL (Sigma-Aldrich, Madrid, Spain) and 10% Fetal Calf Serum (FCS) (Gibco; Life Technologies, Madrid, Spain) as as described. For each experiment, neuroblastoma cells were digested partially with 0.25% trypsin-EDTA and seeded in plates of 96 or 48 wells with a density of 0.5–1 or 2–2.5 × 10^5 cells/well, respectively, depending on the assay. At 80% confluence of the seeded cells, medium was renewed adding 0.1–1000 µM of the compounds tested.
as §1
Cell viability measurements were carried out in human neuroblastoma cells SHSY5Y using 96-well culture plates, containing about 0.5–1 × 10^5 cells/well, after the OGD-R24h or control treatment including 0.01–1000 µM of the different testing compounds (nitrones 9a–g, PBN, and NAC), utilizing the Cell Proliferation Kit II (XTT), Sigma Aldrich, Madrid, Spain, which determines the culture’s metabolic capacity, as described in [21, 22]. XTT solution (0.3 mg/mL final concentration) was added to the seeded cells, incubated for 2 h at 37 °C with 5% CO2 and 95% air (v/v), and a spectrophotometer reader (Biotek Power-Wave XS microplate-reader (BioTek Instruments, Madrid, Spain) was used to register the absorbance at 450 nm (reference 650 nm) of the soluble formazan product generated. 100% viability was set by control normoxic cells treated with medium only, and control cells were added 0.001–1% DMSO in every assay.
(In general: Formazan colour is commonly taken as a measure of viable cells.)

Compound `Cc1cn(C/C=[N+](/C)[O-])c(=O)[nH]c1=O` [9b] gave an IC50 in experiment [1] of 79 µM. Further, the “ABTS+ (%)” value in experiment [2] was 14%. Besides, in experiment [3] (Homo sapiens), the IC50 came to 23.2 ± 2.64 µM and the Emax was determined as 122 ± 1.84%. In addition, in experiment [4] (Homo sapiens), the Emax came to 123 ± 8.46% and the EC50 came to 193 ± 36.7 µM.

`C/[N+]([O-])=C/Cn1cc(Br)c(=O)[nH]c1=O` [9d] gave an IC50 in experiment [1] of 35 µM. Moreover, in experiment [2], the “ABTS+ (%)” value is reported as 12%. For the same compound, in experiment [3] (Homo sapiens), the IC50 amounted to 50.2 ± 8.87 µM and the Emax came out at 120 ± 4.62%. For the same compound, in experiment [4] (Homo sapiens), the Emax was 125 ± 8.05% and the EC50 is 29.2 ± 7.72 µM.

Consider `C/[N+]([O-])=C/Cn1cc(Cl)c(=O)[nH]c1=O` [9e], for which the IC50 in experiment [1] was found to be 65 µM. In addition, in experiment [2], the “ABTS+ (%)” value is on record as 19%. Besides, in experiment [3] (Homo sapiens), the IC50 worked out at 12 ± 1.71 µM and the Emax stood at 98.6 ± 2.24%. For the same compound, in experiment [4] (Homo sapiens), the Emax was determined as 99.7 ± 5.98% and the EC50 is 165 ± 26.1 µM.

For `C/[N+]([O-])=C/Cn1cnc2c(N)ncnc21` [9f], the IC50 in experiment [1] was 31 µM. The “ABTS+ (%)” value in experiment [2] came out at 6%. Besides, in experiment [3] (Homo sapiens), the IC50 worked out at 3.93 ± 0.05 µM and the Emax amounted to 129 ± 2.26%. Also, the EC50 in experiment [4] (Homo sapiens) worked out at 1.55 ± 0.15 µM.

Compound `C/[N+]([O-])=C/Cn1cc(Br)c(=O)n(C/C=[N+](/C)[O-])c1=O` [9i] returned an IC50 in experiment [1] of 57.5 µM. The “ABTS+ (%)” value in experiment [2] worked out at 75%. In experiment [3] (Homo sapiens), the IC50 was 43.1 ± 6.5 µM and the Emax turned out to be 121 ± 5.82%. Further, in experiment [4] (Homo sapiens), the Emax was found to be 110 ± 3.97% and the EC50 turned out to be 23.6 ± 4.17 µM.

Take `CC(C)(C)[N+]([O-])=Cc1ccccc1` [PBN, α-phenyl-N-tert-butylnitrone, reference compound]: the “LOX (%) inhibition” value in experiment [1] (tested at 100 µM) was found to be 23%. The “ABTS+ (%)” value in experiment [2] came to 5%. In experiment [3], the “Maximal Inhibition Mean±SEM (LDH release)” value was 77.51 ±5.75% and ≈ 75%; the IC50 was 5.28 µM and ~5 µM. In experiment [4], the “Maximal Activity mean±SEM (neuroprotection)” value is 96.93 ±6.97% and ≈ 96%; the EC50 is 33.5 µM and ~35 µM.
